Source: patent US10617693B2, “Methods of treating and/or preventing actinic keratosis” (Athenex, Inc., priority 2017, dated 2020)

System: subjects with AK on the face or scalp
Assay: Phase 2a study KX01-AK-002: local skin reactions (grade 0 not present to 4 worst) and adverse events, 0.5 mg KX-01 on 25 cm^2
Format: in vivo, human
Excerpt: An ongoing Phase 2a, open-label, multicenter, activity and safety study of KX-01 administered topically in subjects with AK on the face or scalp is described herein. […] Secondary objectives are to assess the activity of KX-01 administered topically during Days 1-57 based on reduction of AK lesion counts from baseline, assess the safety and tolerability and pharmacokinetics, and contrast the dose regimens (5-day treatment with 3-day treatment) in terms of activity and safety in subjects with AK on the face or scalp. This uncontrolled, nonrandomized trial is being conducted at 16 investigational sites in the United States. Enrollment is sequential for 2 cohorts of approximately 80 subjects each. Enrollment is closed for Cohort 1 and ongoing for Cohort 2. The two treatment cohorts are summarized below: • Cohort 1: 0.5 mg KX-01 administered topically to a contiguous treatment area of 25 cm^2 with 4-8 clinically typical AK lesions for 5 consecutive days • Cohort 2: 0.5 mg KX-01 administered topically to a contiguous treatment area of 25 cm^2 with 4-8 clinically typical AK lesions for 3 consecutive days
0.5 mg KX-01 is administered topically to an area of 25 cm^2 on the face or scalp by site staff on treatment days. […] AK lesion counts are recorded at baseline, days 8, 15, 29, and 57. […] Standardized photography of treatment area is performed at baseline, day 8 and day 57. Plasma samples are being collected at preplanned time points on days 1 and 5 for Cohort 1, and on days 1 and 3 for Cohort 2.
Absence or presence of hyperpigmentation, hypopigmentation and scarring are also assessed. Application site reactions not classified as LSRs are reported as AEs. […] LSRs and AEs are reported separately. All LSRs, pigmentation, and scarring in the treatment area will be followed to resolution or stabilization.
The range of possible composite scores is 0-24.
The Phase 2a trial described in Example 2a was completed with 84 eligible subjects enrolled in each of two cohorts: one cohort was subjected to the treatment for 5 consecutive days, and the other cohort was subjected to the treatment for 3 consecutive days. The results are described below and in FIG. 5.

O=C(Cc1ccc(-c2ccc(OCCN3CCOCC3)cc2)cn1)NCc1ccccc1 [KX-01]
10/67: Flaking/Scaling grade 1, n/N subjects (Day 57, Cohort 1 (5-day))
66/67: Erosion/Ulceration grade 0, n/N subjects (Day 15, Cohort 1 (5-day)) | Swelling grade 0, n/N subjects (Day 29, Cohort 1 (5-day))
53/67: Erythema grade 0, n/N subjects (Day 57, Cohort 1 (5-day))
67/67: Swelling grade 0, n/N subjects (Day 15, Cohort 1 (5-day)) | Vesiculation/Pustulation grade 0, n/N subjects (Day 15, Cohort 1 (5-day)) | Erosion/Ulceration grade 0, n/N subjects (Day 29, Cohort 1 (5-day)) | Vesiculation/Pustulation grade 0, n/N subjects (Day 29, Cohort 1 (5-day)) | Erosion/Ulceration grade 0, n/N subjects (Day 57, Cohort 1 (5-day)) | Swelling grade 0, n/N subjects (Day 57, Cohort 1 (5-day)) | Vesiculation/Pustulation grade 0, n/N subjects (Day 57, Cohort 1 (5-day))
51/67: Flaking/Scaling grade 0, n/N subjects (Day 29, Cohort 1 (5-day))
safe and well tolerated: Safety and tolerability (topically once daily for 5 days)
25/67: Erythema grade 1, n/N subjects (Day 15, Cohort 1 (5-day))
63/67: Crusting grade 0, n/N subjects (Day 15, Cohort 1 (5-day)) | Crusting grade 0, n/N subjects (Day 57, Cohort 1 (5-day))
57/67: Flaking/Scaling grade 0, n/N subjects (Day 57, Cohort 1 (5-day))
9/67: Flaking/Scaling grade 2, n/N subjects (Day 15, Cohort 1 (5-day))
no Grade 4 LSRs were observed: Grade 4 LSRs (after 5 days of treatment, interim)
1/67: Erosion/Ulceration grade 1, n/N subjects (Day 15, Cohort 1 (5-day)) | Flaking/Scaling grade 3, n/N subjects (Day 29, Cohort 1 (5-day)) | Swelling grade 1, n/N subjects (Day 29, Cohort 1 (5-day))
5/67: Flaking/Scaling grade 3, n/N subjects (Day 15, Cohort 1 (5-day))
27/67: Erythema grade 0, n/N subjects (Day 15, Cohort 1 (5-day))
65/67: Crusting grade 0, n/N subjects (Day 29, Cohort 1 (5-day))
4/67: Crusting grade 1, n/N subjects (Day 15, Cohort 1 (5-day)) | Erythema grade 2, n/N subjects (Day 29, Cohort 1 (5-day)) | Crusting grade 1, n/N subjects (Day 57, Cohort 1 (5-day))
14/67: Flaking/Scaling grade 1, n/N subjects (Day 15, Cohort 1 (5-day))
45/67: Erythema grade 0, n/N subjects (Day 29, Cohort 1 (5-day))
12/67: Erythema grade 1, n/N subjects (Day 57, Cohort 1 (5-day))
39/67: Flaking/Scaling grade 0, n/N subjects (Day 15, Cohort 1 (5-day))
13/67: Erythema grade 2, n/N subjects (Day 15, Cohort 1 (5-day)) | Flaking/Scaling grade 1, n/N subjects (Day 29, Cohort 1 (5-day))
2/67: Erythema grade 3, n/N subjects (Day 15, Cohort 1 (5-day)) | Crusting grade 1, n/N subjects (Day 29, Cohort 1 (5-day)) | Flaking/Scaling grade 2, n/N subjects (Day 29, Cohort 1 (5-day)) | Erythema grade 2, n/N subjects (Day 57, Cohort 1 (5-day))
0: Vesiculation/Pustulation grade 3, n/N subjects (Day 8, Cohort 1 (5-day)) | Vesiculation/Pustulation grade 4, n/N subjects (Day 8, Cohort 1 (5-day)) | Crusting grade 2, n/N subjects (Day 15, Cohort 1 (5-day)) | Crusting grade 3, n/N subjects (Day 15, Cohort 1 (5-day)) | Crusting grade 4, n/N subjects (Day 15, Cohort 1 (5-day)) | Erosion/Ulceration grade 2, n/N subjects (Day 15, Cohort 1 (5-day)) | Erosion/Ulceration grade 3, n/N subjects (Day 15, Cohort 1 (5-day)) | Erosion/Ulceration grade 4, n/N subjects (Day 15, Cohort 1 (5-day)) | Erythema grade 4, n/N subjects (Day 15, Cohort 1 (5-day)) | Flaking/Scaling grade 4, n/N subjects (Day 15, Cohort 1 (5-day)) | Swelling grade 1, n/N subjects (Day 15, Cohort 1 (5-day)) | Swelling grade 2, n/N subjects (Day 15, Cohort 1 (5-day)) | Swelling grade 3, n/N subjects (Day 15, Cohort 1 (5-day)) | Swelling grade 4, n/N subjects (Day 15, Cohort 1 (5-day)) | Vesiculation/Pustulation grade 1, n/N subjects (Day 15, Cohort 1 (5-day)) | Vesiculation/Pustulation grade 2, n/N subjects (Day 15, Cohort 1 (5-day)) | Vesiculation/Pustulation grade 3, n/N subjects (Day 15, Cohort 1 (5-day)) | Vesiculation/Pustulation grade 4, n/N subjects (Day 15, Cohort 1 (5-day)) | Crusting grade 2, n/N subjects (Day 29, Cohort 1 (5-day)) | Crusting grade 3, n/N subjects (Day 29, Cohort 1 (5-day)) | Crusting grade 4, n/N subjects (Day 29, Cohort 1 (5-day)) | Erosion/Ulceration grade 1, n/N subjects (Day 29, Cohort 1 (5-day)) | Erosion/Ulceration grade 2, n/N subjects (Day 29, Cohort 1 (5-day)) | Erosion/Ulceration grade 3, n/N subjects (Day 29, Cohort 1 (5-day)) | Erosion/Ulceration grade 4, n/N subjects (Day 29, Cohort 1 (5-day)) | Erythema grade 3, n/N subjects (Day 29, Cohort 1 (5-day)) | Erythema grade 4, n/N subjects (Day 29, Cohort 1 (5-day)) | Flaking/Scaling grade 4, n/N subjects (Day 29, Cohort 1 (5-day)) | Swelling grade 2, n/N subjects (Day 29, Cohort 1 (5-day)) | Swelling grade 3, n/N subjects (Day 29, Cohort 1 (5-day)) | Swelling grade 4, n/N subjects (Day 29, Cohort 1 (5-day)) | Vesiculation/Pustulation grade 1, n/N subjects (Day 29, Cohort 1 (5-day)) | Vesiculation/Pustulation grade 2, n/N subjects (Day 29, Cohort 1 (5-day)) | Vesiculation/Pustulation grade 3, n/N subjects (Day 29, Cohort 1 (5-day)) | Vesiculation/Pustulation grade 4, n/N subjects (Day 29, Cohort 1 (5-day)) | Crusting grade 2, n/N subjects (Day 57, Cohort 1 (5-day)) | Crusting grade 3, n/N subjects (Day 57, Cohort 1 (5-day)) | Crusting grade 4, n/N subjects (Day 57, Cohort 1 (5-day)) | Erosion/Ulceration grade 1, n/N subjects (Day 57, Cohort 1 (5-day)) | Erosion/Ulceration grade 2, n/N subjects (Day 57, Cohort 1 (5-day)) | Erosion/Ulceration grade 3, n/N subjects (Day 57, Cohort 1 (5-day)) | Erosion/Ulceration grade 4, n/N subjects (Day 57, Cohort 1 (5-day)) | Erythema grade 3, n/N subjects (Day 57, Cohort 1 (5-day)) | Erythema grade 4, n/N subjects (Day 57, Cohort 1 (5-day)) | Flaking/Scaling grade 2, n/N subjects (Day 57, Cohort 1 (5-day)) | Flaking/Scaling grade 3, n/N subjects (Day 57, Cohort 1 (5-day)) | Flaking/Scaling grade 4, n/N subjects (Day 57, Cohort 1 (5-day)) | Swelling grade 1, n/N subjects (Day 57, Cohort 1 (5-day)) | Swelling grade 2, n/N subjects (Day 57, Cohort 1 (5-day)) | Swelling grade 3, n/N subjects (Day 57, Cohort 1 (5-day)) | Swelling grade 4, n/N subjects (Day 57, Cohort 1 (5-day)) | Vesiculation/Pustulation grade 1, n/N subjects (Day 57, Cohort 1 (5-day)) | Vesiculation/Pustulation grade 2, n/N subjects (Day 57, Cohort 1 (5-day)) | Vesiculation/Pustulation grade 3, n/N subjects (Day 57, Cohort 1 (5-day)) | Vesiculation/Pustulation grade 4, n/N subjects (Day 57, Cohort 1 (5-day))
18/67: Erythema grade 1, n/N subjects (Day 29, Cohort 1 (5-day))
